Source: PubChem BioAssay AID328 (DTP/NCI, 2004)
Several values for one entry are separate records, joined by “and”; a condition that tells them apart may be missing. Equal entries are not always repeated. Inconclusive results and toxic doses are left out. Residues, ends and D or L forms follow the SMILES beside them. *: point of attachment. Boc = CC(C)(C)OC(=O)*; OBn = c1ccc(CO*)cc1

System: BDF1 mice, P388 leukemia ip, median survival T/C
Assay: NCI In Vivo Anticancer Drug Screen. Data for tumor model P388 Leukemia (intraperitoneal) in B6D2F1 (BDF1) mice
Details: endpoint: median survival time, higher = longer survival
Procedure, shortened: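 Vehicle-dosed animals serve as the reference; survival of compound-dosed, tumour-implanted mice is divided by it.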

[1] = dose: 100.0 mg/kg/injection, schedule: Q01DX009 (ip), vehicle: Klucel (hydroxypropylcellulose) (HPC)
[2] = dose: 200.0 mg/kg/injection, schedule: Q01DX009 (ip), vehicle: Klucel (hydroxypropylcellulose) (HPC)
[3] = dose: 50.0 mg/kg/injection, schedule: Q01DX005 (ip), vehicle: saline with Tween-80
[4] = dose: 100.0 mg/kg/injection, schedule: Q01DX005 (ip), vehicle: saline with Tween-80
[5] = dose: 12.5 mg/kg/injection, schedule: Q01DX009 (ip), vehicle: saline
[6] = dose: 100.0 mg/kg/injection, schedule: Q04DX003 (ip), vehicle: Klucel (hydroxypropylcellulose) (HPC)
[7] = dose: 200.0 mg/kg/injection, schedule: Q04DX003 (ip), vehicle: Klucel (hydroxypropylcellulose) (HPC)
[8] = dose: 400.0 mg/kg/injection, schedule: Q04DX003 (ip), vehicle: Klucel (hydroxypropylcellulose) (HPC)

## CC1(C)N=C(N)N=C(N)N1c1ccc(CCCCc2ccc(Cl)cc2Cl)cc1
dose: 4.0 mg/kg/injection, schedule: Q01DX009 (ip), vehicle: saline
  T/C: 118 % of control
dose: 25.0 mg/kg/injection, schedule: Q01DX002 (ip), vehicle: saline
  T/C: 91 % of control
dose: 50.0 mg/kg/injection, schedule: Q01DX002 (ip), vehicle: saline
  T/C: 103 % of control

## CCOC(=O)c1ccc(NCc2cccc([N+](=O)[O-])c2)cc1
dose: 100.0 mg/kg/injection, schedule: Q01DX001 (ip), vehicle: Klucel (hydroxypropylcellulose) (HPC)
  T/C: 115 % of control
dose: 200.0 mg/kg/injection, schedule: Q01DX001 (ip), vehicle: Klucel (hydroxypropylcellulose) (HPC)
  T/C: 100 % of control
dose: 400.0 mg/kg/injection, schedule: Q01DX001 (ip), vehicle: Klucel (hydroxypropylcellulose) (HPC)
  T/C: 93 % of control

## S=C(Nc1ccc(Cl)c(Cl)c1)N1c2ccccc2-n2cccc2C1c1cccnc1 (configuration not stated)
dose: 50.0 mg/kg/injection, schedule: Q01DX009 (ip), vehicle: Klucel (hydroxypropylcellulose) (HPC)
  T/C: 124 % of control
[1]
  T/C: 121 % of control
[2]
  T/C: 117 % of control

## CC(C)(C)OC(=O)NCC(=O)NCC(=O)NCC(=O)OCc1ccccc1 (Boc-Gly-Gly-Gly-OBn)
[3]
  T/C: 95 % of control
[4]
  T/C: 98 % of control

## O=[N+]([O-])c1ccc(NS(=O)(=O)c2ccc(Cl)c(Cl)c2Cl)c([N+](=O)[O-])c1
dose: 25.0 mg/kg/injection, schedule: Q01DX009 (ip), vehicle: saline with Tween-80
  T/C: 96 % of control
dose: 50.0 mg/kg/injection, schedule: Q01DX009 (ip), vehicle: saline with Tween-80
  T/C: 105 % of control
dose: 100.0 mg/kg/injection, schedule: Q01DX009 (ip), vehicle: saline with Tween-80
  T/C: 102 % of control

## O=C1c2cc([N+](=O)[O-])ccc2-c2cc(Cl)c(Cl)cc21
dose: 50.0 mg/kg/injection, schedule: Q01DX001 (ip), vehicle: saline sonified
  T/C: 86 % of control
dose: 100.0 mg/kg/injection, schedule: Q01DX001 (ip), vehicle: saline sonified
  T/C: 100 % of control
dose: 200.0 mg/kg/injection, schedule: Q01DX001 (ip), vehicle: saline sonified
  T/C: 90 % of control

## NC(=O)c1c(Cl)nc(-c2cccc([N+](=O)[O-])c2)c([N+](=O)[O-])c1C(F)(F)F
[3]
  T/C: 87 % of control
[4]
  T/C: 115 % of control
dose: 200.0 mg/kg/injection, schedule: Q01DX005 (ip), vehicle: saline with Tween-80
  T/C: 112 % of control

## O=[N+]([O-])c1ccc(S)cc1
dose: 18.75 mg/kg/injection, schedule: Q01DX009 (ip), vehicle: saline sonified
  T/C: 100 % of control
dose: 37.5 mg/kg/injection, schedule: Q01DX009 (ip), vehicle: saline sonified
  T/C: 100 % of control
dose: 75.0 mg/kg/injection, schedule: Q01DX009 (ip), vehicle: saline sonified
  T/C: 117 % of control

## COc1ccc(C)cc1NN
[5]
  T/C: 100 % of control
dose: 50.0 mg/kg/injection, schedule: Q01DX009 (ip), vehicle: saline
  T/C: 100 % of control
dose: 50.0 mg/kg/injection, schedule: Q04DX003 (ip), vehicle: saline
  T/C: 109 % of control
dose: 100.0 mg/kg/injection, schedule: Q04DX003 (ip), vehicle: saline
  T/C: 104 % of control
dose: 200.0 mg/kg/injection, schedule: Q04DX003 (ip), vehicle: saline
  T/C: 95 % of control

## COc1cc2cc(c1Cl)N(C)C(=O)C[C@H](OC(=O)[C@H](C)N(C)C(C)=O)[C@]1(C)O[C@H]1[C@H](C)[C@@H]1C[C@@](O)(NC(=O)O1)[C@H](OC)C=C/C=C(\C)C2
dose: 1.6 micrograms/kg/injection, schedule: Q01DX009 (ip), vehicle: saline
  T/C: 155 % of control
dose: 2.0 micrograms/kg/injection, schedule: Q08DX002 (ip), vehicle: saline
  T/C: 104 % of control
dose: 3.1 micrograms/kg/injection, schedule: Q01DX009 (ip), vehicle: saline
  T/C: 165 % of control
dose: 4.0 micrograms/kg/injection, schedule: Q08DX002 (ip), vehicle: saline
  T/C: 111 % of control and 117 % of control
dose: 6.2 micrograms/kg/injection, schedule: Q01DX009 (ip), vehicle: saline
  T/C: 195 % of control
dose: 8.0 micrograms/kg/injection, schedule: Q08DX002 (ip), vehicle: saline
  T/C: 122 % of control and 123 % of control
dose: 10.0 micrograms/kg/injection, schedule: Q03HX024 (ip), vehicle: saline
  T/C: 194 % of control
dose: 12.5 micrograms/kg/injection, schedule: Q01DX009 (ip), vehicle: saline
  T/C: 190 % of control
dose: 15.0 micrograms/kg/injection, schedule: Q03HX024 (ip), vehicle: saline
  T/C: 238 % of control
dose: 20.0 micrograms/kg/injection, schedule: Q03HX024 (ip), vehicle: saline
  T/C: 176 % of control
dose: 25.0 micrograms/kg/injection, schedule: Q01DX009 (ip), vehicle: saline
  T/C: 220 % of control
dose: 25.0 micrograms/kg/injection, schedule: Q03HX024 (ip), vehicle: saline
  T/C: 188 % of control
dose: 30.0 micrograms/kg/injection, schedule: Q03HX024 (ip), vehicle: saline
  T/C: 527 % of control
dose: 32.0 micrograms/kg/injection, schedule: Q08DX002 (ip), vehicle: clinical formulation
  T/C: 191 % of control
dose: 35.0 micrograms/kg/injection, schedule: Q03HX024 (ip), vehicle: saline
  T/C: 194 % of control
dose: 40.0 micrograms/kg/injection, schedule: Q03HX024 (ip), vehicle: saline
  T/C: 188 % of control
dose: 50.0 micrograms/kg/injection, schedule: Q04DX003 (ip), vehicle: clinical formulation
  T/C: 203 % of control
dose: 54.0 micrograms/kg/injection, schedule: Q04DX003 (ip), vehicle: clinical formulation
  T/C: 192 % of control
dose: 64.0 micrograms/kg/injection, schedule: Q08DX002 (ip), vehicle: clinical formulation
  T/C: 155 % of control and 169 % of control
dose: 64.0 micrograms/kg/injection, schedule: Q08DX002 (ip), vehicle: saline
  T/C: 163 % of control
dose: 90.0 micrograms/kg/injection, schedule: Q04DX003 (ip), vehicle: clinical formulation
  T/C: 200 % of control
dose: 100.0 micrograms/kg/injection, schedule: Q04DX003 (ip), vehicle: clinical formulation
  T/C: 183 % of control
dose: 108.0 micrograms/kg/injection, schedule: Q04DX003 (ip), vehicle: saline
  T/C: 172 % of control
dose: 128.0 micrograms/kg/injection, schedule: Q08DX002 (ip), vehicle: clinical formulation
  T/C: 167 % of control and 182 % of control
dose: 128.0 micrograms/kg/injection, schedule: Q08DX002 (ip), vehicle: saline
  T/C: 183 % of control and 193 % of control
dose: 150.0 micrograms/kg/injection, schedule: Q04DX003 (ip), vehicle: clinical formulation
  T/C: 224 % of control
dose: 180.0 micrograms/kg/injection, schedule: Q04DX003 (ip), vehicle: saline
  T/C: 159 % of control
dose: 200.0 micrograms/kg/injection, schedule: Q04DX003 (ip), vehicle: clinical formulation
  T/C: 194 % of control
dose: 250.0 micrograms/kg/injection, schedule: Q04DX003 (ip), vehicle: clinical formulation
  T/C: 224 % of control
dose: 256.0 micrograms/kg/injection, schedule: Q08DX002 (ip), vehicle: clinical formulation
  T/C: 197 % of control and 204 % of control
dose: 256.0 micrograms/kg/injection, schedule: Q08DX002 (ip), vehicle: saline
  T/C: 203 % of control and 219 % of control
dose: 300.0 micrograms/kg/injection, schedule: Q04DX003 (ip), vehicle: saline
  T/C: 180 % of control
dose: 512.0 micrograms/kg/injection, schedule: Q08DX002 (ip), vehicle: clinical formulation
  T/C: 227 % of control
dose: 512.0 micrograms/kg/injection, schedule: Q08DX002 (ip), vehicle: saline
  T/C: 272 % of control and 219 % of control
dose: 1024.0 micrograms/kg/injection, schedule: Q08DX002 (ip), vehicle: clinical formulation
  T/C: 242 % of control
dose: 1024.0 micrograms/kg/injection, schedule: Q08DX002 (ip), vehicle: saline
  T/C: 88 % of control and 117 % of control

## CC(=O)N(O)CCCC1NC(=O)C(CCCN(O)C(C)=O)NC1=O (configuration not stated)
dose: 100.0 mg/kg/injection, schedule: Q01DX001 (ip), vehicle: saline
  T/C: 90 % of control
dose: 200.0 mg/kg/injection, schedule: Q01DX001 (ip), vehicle: saline
  T/C: 90 % of control
dose: 400.0 mg/kg/injection, schedule: Q01DX001 (ip), vehicle: saline
  T/C: 95 % of control

## O=[N+]([O-])c1cc([N+](=O)[O-])c(NN(c2ccccc2)c2cccc3ccccc23)c([N+](=O)[O-])c1
[6]
  T/C: 91 % of control
[7]
  T/C: 116 % of control
[8]
  T/C: 87 % of control

## COCC1OC(OC2OCC3OC4(OCC(O)(C(C)OC)C5OCOC54)OC3C2OC)C(OC)C(O)C1OC1OC(C)C(OC)C(OC2OC(C)C3OC4(CC(O)C(OC5CC(OC6CC(C)([N+](=O)[O-])C(OC)C(C)O6)C(OC(=O)c6c(C)c(Cl)c(O)c(Cl)c6OC)C(C)O5)C(C)O4)OC3(C)C2O)C1O (configuration not stated)
[5]
  T/C: 115 % of control

## O=c1ccc2nc3cc(Cl)ccc3sc-2c1
[1]
  T/C: 109 % of control
[6]
  T/C: 100 % of control
[2]
  T/C: 95 % of control and 105 % of control
[7]
  T/C: 90 % of control
dose: 400.0 mg/kg/injection, schedule: Q01DX009 (ip), vehicle: Klucel (hydroxypropylcellulose) (HPC)
  T/C: 100 % of control
[8]
  T/C: 90 % of control
